The source of these data is US20240252456A1, “ORAL COMPOSITION, SKIN COSMETIC AND HAIR COSMETIC” (MARUZEN PHARMACEUTICALS CO., LTD., priority 2021, published 2024).

Structures are written as SMILES.

Experiment [1] relates to AGEs. The experiment in a line: Advanced glycation end product (AGEs) formation suppressive action test. The note with it: type I collagen-coated plate, 0.2M D(−)-ribose, 37° C., 20 days. How it is done:
In a 96-well type I collagen-coated plate (available from AGC Inc.), 100 μL of a mixed solution of 0.2M D(−)-ribose prepared with PBS(−) buffer solution and each of test samples (Samples 1 and 2, see Table 22 below for final concentrations) were added and statically placed at 37° C. for 20 days to form AGEs. In addition, PBS(−) buffer solution only as a negative control and a 0.2M D(−)-ribose solution prepared with PBS(−) buffer solution as a positive control were statically placed in the same manner. After 20 days, the amount of AGEs was measured by the ELISA method using an anti-AGEs antibody (available from TPANS GENIC INC.), and the AGEs formation suppressive action was evaluated. From the obtained results, the AGEs formation suppression rate (%) was calculated using the following equation.
Terms in the equation represent the following respective ones. • A: Absorbance at wavelength 405 nm in negative control • B: Absorbance at wavelength 405 nm in positive control • C: Absorbance at wavelength 405 nm with test sample addition

Experiment [2] relates to CLDN1 mRNA. In words: Claudin-1 (CLDN1) mRNA expression promotive action test. Type of experiment: cell-based, human. The note with it: NHEK, 24 hours, corrected with GAPDH. How it is done:
(§1) Normal human neonatal epidermal keratinocytes (NHEK) were precultured using normal human epidermal keratinocyte growth medium (KGM), and the cells were collected by a trypsin treatment. The collected cells were diluted with KGM to a cell density of 15×10^4 cells/mL, then seeded with 2 mL portions in a 6-well plate (30×10^4 cells/well), and cultured overnight under conditions of 37° C. and 5% CO2. After culturing, the medium was replaced with normal human epidermal keratinocyte basal medium (KBM, the above KGM without addition of growth additives (hEGF, BPE, insulin, antibacterial agents, hydrocortisone)), and culturing was further performed for 24 hours.
After culturing for 24 hours, the medium was removed, and 2 mL of each of test samples (Samples 1 and 3, see Table 19 below for final concentrations) dissolved in KBM was added to each well, and culturing was performed under conditions of 37° C. and 5% CO2 for 24 hours. As a control, culturing was performed in the same manner using KBM to which no sample was added. After culturing, the medium was removed, total RNA was extracted using ISOGEN II (available from NIPPON GENE CO., LTD.), each RNA amount was measured using a spectrophotometer, and the total RNA was prepared so as to be 150 ng/μL.
For CLDN1 and GAPDH as an internal standard, the expression levels of mRNA were measured using the above total RNA as a template. Detection was performed through a two-step real-time RT-PCR reaction using a real-time PCR device, Thermal Cycler Dice Real Time System III (available from Takara Bio Inc.), with PrimeScript™ RT Master Mix (Perfect Real Time) (available from Takara Bio Inc.) and TB Green® Fast qPCR Mix (available from Takara Bio Inc.). Primers available from Takara Bio Inc. were used. The expression level of CLDN1 mRNA was obtained as a value corrected with a value of GAPDH based on total RNA preparations prepared from cells cultured “with test sample addition” and “without sample addition.” From the obtained values, the CLDN1 mRNA expression promotion rate (%) was calculated using the following equation. […]

Experiment [3] deals with TGM1 mRNA. The experiment in a line: Transglutaminase-1 (TGM1) mRNA expression promotive action test. It is filed as cell-based, human. Particulars: NHEK, 24 hours, A/B×100, corrected with GAPDH. How it is done: as §1
After culturing for 24 hours, the medium was removed, and 2 mL of each of test samples (Samples 1 to 3, see Table 15 below for final concentrations) dissolved in KBM was added to each well, and culturing was performed under conditions of 37° C. and 5% CO2 for 24 hours. As a control, culturing was performed in the same manner using KBM to which no sample was added. After culturing, the medium was removed, total RNA was extracted using ISOGEN II (available from NIPPON GENE CO., LTD.), each RNA amount was measured using a spectrophotometer, and the total RNA was prepared so as to be 150 ng/μL.
For TGM1 and GAPDH as an internal standard, the expression levels of mRNA were measured using the above total RNA as a template. Detection was performed through a two-step real-time RT-PCR reaction using a real-time PCR device, Thermal Cycler Dice Real Time System III (available from Takara Bio Inc.), with PrimeScript™ RT Master Mix (Perfect Real Time) (available from Takara Bio Inc.) and TB Green® Fast qPCR Mix (available from Takara Bio Inc.). The primers used were those having the sequences 5′-[…]-3′ and 5′-[…]-3′.
The expression level of TGM1 mRNA was obtained as a value corrected with a value of GAPDH based on total RNA preparations prepared from cells cultured “with test sample addition” and “without sample addition.” From the obtained values, the TGM1 mRNA expression promotion rate (%) was calculated using the following equation.
TGM1 mRNA expression promotion rate (%)=A/B×100
Terms in the equation represent the following respective ones. • A: Corrected value with test sample addition • B: Corrected value without sample addition

For experiment [4], the system named is Normal human neonatal epidermal keratinocytes (NHEK). The experiment in a line: ATP production promotive action test (epidermal keratinocytes). Type of experiment: cell-based. The note with it: 2 hours. As for the experimental part: Normal human neonatal epidermal keratinocytes (NHEK) were cultured using normal human epidermal keratinocyte growth medium (KGM), and then the cells were collected by a trypsin treatment. The collected cells were diluted with KGM to a cell density of 2.0×10^5 cells/mL, then seeded with 100 μL per well on a collagen-coated 96-well plate, and cultured overnight. After the culturing was completed, the medium was removed, and 100 μL of KGM to which each of test samples (Samples 1 and 2, see Table 13 below for final concentrations) was added was added to each well, and culturing was performed for 2 hours. As a control, culturing was performed in the same manner using KGM to which no sample was added.
The ATP production promotive action was determined by measuring the amount of ATP in cells using the firefly luciferase luminescence method. […] After the reaction, the amount of chemiluminescence proportional to the amount of intracellular ATP was measured using a chemiluminescence measurement device (available from Thermo Fisher Scientific, product name: Varioskan LUX multimode microplate reader). From the obtained results, the ATP production promotion rate (%) was calculated using the following equation. […]

Regarding `O=C(O)CCc1ccc(O)c(O)c1` [Sample 1, 3,4-Dihydroxyhydrocinnamic acid], the “AGEs formation suppression rate” value in experiment [1] (125 μmol/L) amounted to 45.7%; in experiment [1] (500 μmol/L), 69.4%; in experiment [1] (2000 μmol/L) it was 78.4%. In addition, the “CLDN1 mRNA expression promotion rate” value in experiment [2] (25 μmol/L) is 256.6%; in experiment [2] (100 μmol/L), 568.6%. Also, the entries for the “TGM1 mRNA expression promotion rate” value in experiment [3] (6.25 μmol/L), in experiment [3] (25 μmol/L) and in experiment [3] (100 μmol/L) were 214.6%, 528.6% and 1617.1%, respectively. In experiment [4] (6.25 μmol/L), the “ATP production promotion rate” value amounted to 106.7%.

As to `O=C(O)CCc1ccc(O)cc1` [Sample 2, 3-(4-Hydroxyphenyl)propionic acid], the “AGEs formation suppression rate” value in experiment [1] (2000 μmol/L) is 13.3%. Further, the “TGM1 mRNA expression promotion rate” value in experiment [3] (100 μmol/L) came out at 160.8%. In addition, the “ATP production promotion rate” value in experiment [4] (25 μmol/L) was found to be 112.4%.

In the case of `O=C(O)CCc1ccccc1` [Sample 3, 3-phenylpropionic acid], in experiment [2] (25 μmol/L), the “CLDN1 mRNA expression promotion rate” value is recorded as 125.5%. Besides, the “TGM1 mRNA expression promotion rate” value came out at 218.5% in experiment [3] (25 μmol/L) and 174.9% in experiment [3] (100 μmol/L).
